Test results as given in article PMC8476055, “Synthesis and Biological Activity of Triterpene–Coumarin Conjugates” (Journal of Natural Products, 2021).

Assays:
Hep G2 cells = experiment: Mitochondrial-membrane potential (Rh123) flow cytometry, Hep G2; assay type: cell-based, human; settings: Hep G2, 72 h at IC50 concentration
Method: The study of the loss of the mitochondrial-membrane potential (MMP) of tumor cells, when treated with drugs, can provide information on the activation mechanism of apoptosis. This activation can occur extrinsically when MMP is not altered, and intrinsically when a loss of this potential is caused by mitochondrial disruption. […] The values of percentage of cell population were expressed as means ± SEM of at least two experiments in duplicate. Changes in MMP were analyzed by monitoring cell fluorescence after staining with rhodamine 123 (Rh123).
The electrochemical gradient across the mitochondrial membrane was examined by analytical flow cytometry, using dihydrorhodamine (DHR), which in contact with living cells, oxidized to form highly fluorescent rhodamine 123 (Rh123). The fluorescence emitted can be monitored by fluorescence spectroscopy using excitation and emission wavelengths of 500 and 536 nm, respectively. […] Following treatment, the culture medium was renewed with fresh medium by adding 0.5 mL of DHR, for a final concentration of […]. Cells were incubated for 1 h at 37 °C in an atmosphere of 5% CO2 and 95% humidity and subsequently washed and resuspended in PBS. The fluorescence intensity was measured using a FACScan flow cytometer (fluorescence-activated cell sorter). The experiments were performed three times with two replicates per assay.

[1] = system: Hep G2 human hepatocyte carcinoma cells; experiment: MTT cell proliferation assay, Hep G2 cells; assay type: cell-based; settings: HepG2, 72 h treatment, untreated control = 100% viability, read-out: IC50, growth inhibition of Hep G2 cells
Method: These studies were performed using a 3-(4,5-dimethylthiazol-2-yl)-2,5-diphenyltetrazolium bromide (MTT) assay, with increasing concentration levels of each compound (0–200 μg/mL). Cell viability was determined after treatment for 72 h, by absorption of a formazan dye.
[…] ATTC HTB-38), Hep G2 human hepatocyte carcinoma cells (ECACC 85011430), nontumor human epithelial lung fibroblast cells HPF (ScienCell catalog (cat.) no. 3300), nontumor rat ileum cells IEC-18 (ECACC no. 88011801), and nontumor human embryo liver cells (ECACC 89121403) were cultured in DMEM medium supplemented with 2 mM glutamine, 10% heat-inactivated fetal bovine serum (FCS), 10.000 units/mL penicillin, and […]. These cells were incubated at 37 °C in an atmosphere of 5% CO2 and 95% humidity. The culture media were changed every 48 h, and the confluent cultures were separated with a trypsin solution (0.25% EDTA). Subconfluent monolayer cells were used in all experiments. All cell lines used were provided by the cell bank of the University of Granada (Spain).
The effect of the synthesized compounds on the viability of tumor cells was assessed using an MTT assay, based on the ability of living cells to cleave the tetrazolium ring, thus producing formazan, which absorbs at 570 nm. […] For an evaluation of the cytotoxic effects of these compounds, the cells were seeded in 96-well plates at an initial density of 5 × 10^3 B16–F10 cells, 6 × 10^3 HT29 cells, 15 × 10^3 Hep G2 cells, 8 × 10^3 HPF cells, 15 × 10^3 IEC-18 cells, and 11 × 10^3 WRL68 cells, per well. After incubation for 24 h, the cells were treated with the synthesized compounds in triplicate, at different concentrations (0–200 μg/mL), and incubated for 72 h. Thereafter, 100 μL of MTT solution (0.5 mg/mL) were added to each well. After 2 h of incubation, the cells were washed twice with phosphate buffered saline (PBS), and the formazan was resuspended in 100 μL of DMSO. Relative cell viability, with respect to untreated control cells, was measured by absorbance at 550 nm on an ELISA plate reader (Tecan Sunrise MR20-301, TECAN, Austria). […] These experiments were measured and compared to the control after 72 h of treatment.

B16–F10 cells = experiment: Cell-cycle distribution by PI flow cytometry, B16–F10; assay type: cell-based, murine; settings: B16–F10, 72 h at IC50 concentration
Method: (§1) Based on the cytotoxicity shown by derivatives 1, 4, 7, and 10, a study was made concerning their effects on the distribution of the cell cycle in order to determine possible cytostatic effects caused by the cytotoxic response. The percentages of cells in the different phases of the cycle were analyzed at 72 h, by the incorporation of propidium iodide. […] The values of cell percentage were expressed as means ± SEM of at least two independent experiments performed in triplicate. Flow cytometry was also used to measure DNA ploidy and alterations in cell-cycle profiles. The DNA content is proportional to the fluorescence of propidium iodide, enabling the percentage of cells to be determined in each phase of the cycle and the cell subpopulations with different DNA contents to be visualized.
(§2) The method used to quantify the amount of DNA in the different phases of the cell cycle (G0/G1, S, and G2/M) was performed by flow cytometry, using a fluorescence-activated cell sorter (FACS) at 488 nm in an Epics XL flow cytometer (Coulter Corporation, Hialeah, FL, USA). For this assay, 5 × 10^4 B16–F10, 6 × 10^4 HT29 cells, and 15 × 10^4 Hep G2 cells were placed in 24-well plates with 1.5 mL of medium and incubated for 24 h. After this time, the cells were treated with the different selected compounds for 72 h at their corresponding IC50 concentrations. After treatment, the cells were washed twice with PBS, trypsinized, and resuspended in 1X TBS (10 mM Tris and 150 mM NaCl); thereafter, Vindelov buffer (100 mM Tris, 100 mM NaCl, 10 mg/mL Rnase, and 1 mg/mL PI, at pH 8) was added. Cells were stored on ice and, just before measurement, were stained with 10 μL of 1 mg/mL PI solution. Approximately, 10 × 10^3 cells were analyzed in each experiment. The experiments were performed three times with two replicates per assay.

HT29 cells = experiment: Cell-cycle distribution by PI flow cytometry, HT29; assay type: cell-based, human; settings: HT29, 72 h at IC50 concentration
Method: as §1, §2

Row | SMILES | Rh123 staining (mitochondrial-membrane potential) (Hep G2 cells) | IC50 [1] [µM] | percentage of cells in the G0/G1 phase (B16–F10 cells) | percentage of cells in the G0/G1 phase (HT29 cells)
1 | CC1(C)CC[C@]2(C(=O)NCCCNC(=O)c3cc4ccccc4oc3=O)CC[C@]3(C)C(=CC[C@@H]4[C@@]5(C)C[C@@H](O)[C@H](O)C(C)(C)[C@@H]5CC[C@]43C)[C@@H]2C1 [Compound 1, 2α,3β-Dihydroxy-N-(3′-(2″-oxo-2″H-chromene-3″-carboxamido)propyl)olean-12-en-28-amide] | negative Rh123 staining | > 10 |  | 
2 | CC1(C)CC[C@]2(C(=O)NCCCNC(=O)Cc3cc(=O)oc4cc(O)ccc34)CC[C@]3(C)C(=CC[C@@H]4[C@@]5(C)C[C@@H](O)[C@H](O)C(C)(C)[C@@H]5CC[C@]43C)[C@@H]2C1 [Compound 4, 2α,3β-Dihydroxy-N-(3′-(2″-(7‴-hydroxy-2‴-oxo-2‴H-chromen-4‴-yl)acetamido)propyl)olean-12-en-28-amide] | negative Rh123 staining | > 10 | greater than 70% | greater than 70%
3 | CC1(C)CC[C@]2(C(=O)NCCCNC(=O)/C=C/c3ccc(O)cc3)CC[C@]3(C)C(=CC[C@@H]4[C@@]5(C)C[C@@H](O)[C@H](O)C(C)(C)[C@@H]5CC[C@]43C)[C@@H]2C1 [Compound 7, 2α,3β-Dihydroxy-N-(3′-((E)-3″-(4‴-hydroxyphenyl)acrylamido)propyl)olean-12-en-28-amide] |  | 8.8 ± 0.4 | greater than 70% | greater than 70%
4 | CC1(C)CC[C@]2(C(=O)O)CC[C@]3(C)C(=CC[C@@H]4[C@@]5(C)C[C@@H](OC(=O)c6cc7ccccc7oc6=O)[C@H](OC(=O)c6cc7ccccc7oc6=O)C(C)(C)[C@@H]5CC[C@]43C)[C@@H]2C1 [Compound 10] | negative Rh123 staining | 0.9 | greater than 70% | greater than 70%
